Data as given in patent publication US20070270431A1, “Preventive and/or Therapeutic Medicine for Rheumatoid Arthritis” (Kowa Co., Ltd., priority 2004, published 2007).

System: rats of a collagen-induced arthritis model
Test: Suppression of both-hindlimb edema in rats of a collagen-induced arthritis model
Assay type: in vivo, rat
Conditions: 30 days after initial sensitization, pyridazinone 30 mg/kg twice daily, methotrexate 0.05 mg/kg once daily
Protocol: The effect on suppressing edema of both hindlimbs by 2-benzyl-5-(4-chlorophenyl)-6-4-(methylthio)phenyl]-2H-pyridazin-3-one (synthesized through the aforementioned method) and methotrexate were determined both in the cases of combined administration and solo administration through the following procedure. For the experiment-rats of a collagen-induced arthritis model were used. (FDA, CBER, CDER, CDRH: Guidance for industry—Clinical development programs for drugs devices and biological products for the treatment of rheumatoid arthritis (RA)-(1999)). Lewis female rats (LFW/Crj) (obtained from Charles River Laboratories Japan, Inc.) were employed as test animals.
For each 8-week-old LEW/Crj rat, the volume of a portion from the ankle to the toe tip of each hindlimb was measured by means of a plethysmometer for small animals (TK-101CMP, product of Unicom) and the total volume was employed as a volume of the hindlimbs (hereinafter referred to as both-hindlimb volume) at the start of the test (hereinafter referred to as Pre value). By use of the Pre value as an index, the rats were divided into groups by one-parameter-based block randomization so that the values in the groups were averaged out.
The collagen emulsion for sensitization employed for inducing arthritis in rats was prepared by homogenizing a 0.3% Type II collagen liquid (product of Collagen Research Center), adjuvant peptide (product of Peptide Institute, Inc.), and adjuvant incomplete Freund (product of DIFCO) by means of a Handy Micro Homogenizer (product of Microtec Nition) under cooling with ice. The thus-prepared emulsion was intracutaneously injected to 10 sites in the back of each rat at 0.1 mL/site, to thereby initially sensitize the rat. Seven days after initial sensitization the same emulsion (0.12 mL) was intracutaneously injected to the tail head of the rat for booster sensitization
Administration of medicines was carried out on the day after initial sensitizaton to day 29. To the 2-benzyl-5-(4-chlorophenyl)-68 4-(methylthio)phenyl]-2H-pyridazin-3-one solo administration group, the medicine was orally administered twice; in the morning (9:00 to 11:00) and in the evening (15:30 to 17:30) at a dose of 30 mg/kg. […]
Thirty days after initial sensitization, both-hindlimb volume was measured. Volume of both-hindlimb edema was calculated by subtracting the Pre value from the thus-measured value.
Table 1 and FIG. 1 show both-hindlimb edema volume of rats which was measured 30 days after initial sensitization where the rats were divided into the 2-benzyl-5-(4-chlorophenyl)-6-[4-(methylthio)phenyl]-2H-pyridazin-3-one solo administration group, the methotrexate solo administration group, and the combined administration group. […]

Compound: CSc1ccc(-c2nn(Cc3ccccc3)c(=O)cc2-c2ccc(Cl)cc2)cc1 [2-benzyl-5-(4-chlorophenyl)-6-[4-(methylthio)phenyl]-2H-pyridazin-3-one]
- Both-hindlimb edema volume (oral administration from day after sensitization to day 29, average of seven rats ± standard error): 1.04 ± 0.32 mL
- Edema suppression effect (in words) (oral): did not result in potent edema suppression effects
- Relative index (average edema volume of administration group / control group) (oral): 0.66
- Percent edema suppression (vs control group, oral): 34%
